From the NIST ThermoML archive (doi:10.1016/j.tca.2012.07.034)

Conditions: Liquid, DSC

CCCCCCCC/C=C\CCCCCCCC(=O)O [(Z)-9-octadecenoic acid]
Conditions	vapor or sublimation pressure [kPa]
496.7 K	1.333
513.1 K	2.666
524.7 K	4
532.1 K	5.333
538.8 K	6.666
543.8 K	7.999
547.4 K	9.333

CCCCCCCCCCCCCCCC(=O)O [hexadecanoic acid]
Conditions	vapor or sublimation pressure [kPa]
483.3 K	1.333
498.6 K	2.666
509 K	4
517.3 K	5.333
523.4 K	6.666
527.9 K	7.999
533.4 K	9.333

CCCCCCCCCCCC(=O)O [dodecanoic acid]
Conditions	vapor or sublimation pressure [kPa]
444.6 K	1.333
458.9 K	2.666
468.5 K	4
475 K	5.333
479.6 K	6.666
484.8 K	7.999
490.5 K	9.333

CCCCCCCCCCCCCCCCCC(=O)O [octadecanoic acid]
Conditions	vapor or sublimation pressure [kPa]
501.3 K	1.333
519.1 K	2.666
528.9 K	4
535.9 K	5.333
543.7 K	6.666
548.7 K	7.999
553.2 K	9.333

CCCCCCCCCCCCCC(=O)O [tetradecanoic acid]
Conditions	vapor or sublimation pressure [kPa]
464.6 K	1.333
480.8 K	2.666
489.5 K	4
497.2 K	5.333
503.1 K	6.666
508.2 K	7.999
512.6 K	9.333
